Columns and labels:
[1] = adult humans; cited from earlier work
[2] = system: TNFα secretion by normal human bladder smooth muscle cells; assay: TNFα ELISA of normal human bladder smooth muscle cell supernatants; format: cell-based; settings: for TNFα (pg/ml) Subject 2 / TNFα (pg/ml) Subject 1: Carbachol 10^−3 M plus analgesic 50 μM; for TNFα (pg/ml) Subject 2: carbachol alone 286, unstimulated <5; for TNFα (pg/ml) Subject 1: carbachol alone 350, unstimulated <5, mean of duplicates; for effect on the effect of carbachol and LPS on TNFα responses: LPS-induced responses: analgesic at either 5 μM or 50 μM
Description: (§1) Culture supernatants were subjected to cytokine-specific ELISA to determine IL-1β, IL-6 and TNF-α responses in cultures of macrophages treated with analgesic, LPS alone or a combination of LPS and analgesic. The assays were performed on Nunc MaxiSorp Immunoplates (Nunc) coated overnight with 100 μl of anti-mouse IL-6, TNF-α mAbs (BD Biosciences) or IL-1β mAb (R&D Systems) in 0.1 M sodium bicarbonate buffer (pH 9.5). After two washes with PBS (200 μl per well), 200 μl of PBS 3% BSA were added in each well (blocking) and the plates incubated for 2 hours at room temperature. Plates were washed again two times by addition of 200 μl per well, 100 μl of cytokine standards and serial dilutions of culture supernatants were added in duplicate and the plates were incubated overnight at 4° C. Finally, the plates were washed twice and incubated with 100 μl of secondary biotinylated anti-mouse IL-6, TNFα mAbs (BD Biosciences) or IL-1β (R&D Systems) followed by peroxidase-labelled goat anti-biotin mAb (Vector Laboratories). The colorimetric reaction was developed by the addition of 2,2′-azino-bis(3)-ethylbenzylthiazoline-6-sulfonic acid (ABTS) substrate and H2O2 (Sigma) and the absorbance measured at 415 nm with a Victor® V multilabel plate reader (PerkinElmer).
(§2) Normal human bladder smooth muscle cells were isolated by enzymatic digestion from macroscopically normal pieces of human bladder. Cells were expended in vitro by culture at 37° C. in a 5% CO2 atmosphere in RPMI 1640 supplemented with 10% fetal bovine serum, 15 mM HEPES, 2 mM L-glutamine, 100 U/ml penicillin, and […] of streptomycin and passage once a week by treatment with trypsin to detach cells followed by reseeding in a new culture flask. The first week of culture, the culture medium was supplemented with 0.5 ng/ml epidermal growth factor, 2 ng/ml fibroblast growth factor, and 5 μg/ml insulin.
(§3) Bladder smooth muscle cells trypsinized and seeded in microculture plates at a cell density of 3×10^4 cells per well in 100 μl were treated with analgesic solutions (50 μl/well) either alone or together carbachol (10-Molar, 50 μl/well), as an example of non-inflammatory stimuli, or lipopolysaccharide (LPS) of Salmonella typhimurium (1 μg/ml, 50 μl/well), as an example of […] stimuli. When no other effectors were added to the cells, 50 μl of RPMI 1640 without fetal bovine serum were added to the wells to adjust the final volume to 200 μl.
(§4) After 24 hours of culture, 150 μl of culture supernatants were collected, spun down for 2 min at 8,000 rpm at 4° C. to remove cells and debris and stored at −70° C. for analysis of Prostaglandin E2 (PGE2) responses by ELISA. Cells were fixed, permeabilized and blocked for detection of COX2 using a fluorogenic substrate. In selected experiment cells were stimulated 12 hours in vitro for analysis of COX2, PGE2 and cytokine responses.
(§5) COX2 and PGE2 responses were analyzed as described in Example 3. Cytokine responses were analyzed as described in Example 2.

[3] = system: IL-6 secretion by normal human bladder smooth muscle cells; assay: IL-6 ELISA of normal human bladder smooth muscle cell supernatants; format: cell-based; settings: for IL-6 (pg/ml) Subject 1 / IL-6 (pg/ml) Subject 2: Carbachol 10^−3 M plus analgesic 50 μM; for IL-6 (pg/ml) Subject 1: carbachol alone 232, unstimulated <5, mean of duplicates; for IL-6 (pg/ml) Subject 2: carbachol alone 278, unstimulated <5; for effect on the effect of carbachol and LPS on IL-6 responses: LPS-induced responses: analgesic at either 5 μM or 50 μM
Description: as §1, §2, §3, §4, §5

[4] = system: expression of co-stimulatory molecules by Raw 264 macrophage cells; assay: Flow cytometry of co-stimulatory molecules CD40 and CD80 on macrophages treated with analgesic, with or without LPS; format: cell-based, Murine; settings: for effect on basal expression of co-stimulatory molecules CD40 and CD80 by macrophages: 5 × 10^5, 5 × 10^4, 5 × 10^3, 5 × 10^2, 50 and 5 nM
Description: Murine RAW264.7 or J774 macrophage cells (obtained from ATCC) were used in this study. Cells were maintained in a culture medium containing RPMI 1640 supplemented with 10% fetal bovine serum (FBS), 15 mM HEPES, 2 mM L-glutamine, 100 U/ml penicillin, and 100 μg/ml of streptomycin. Cells were cultured at 37° C. in a 5% CO2 atmosphere and split (passages) once a week.
RAW264.7 macrophage cells were seeded in 96-well plates at a cell density of 1.5×10^5 cells per well in 100 μl of the culture medium. […] Briefly, the analgesics were dissolved in FBS-free culture medium (i.e., RPMI 1640 supplemented with 15 mM HEPES, 2 mM L-glutamine, 100 U/ml penicillin, and 100 μg/ml of streptomycin), and diluted to desired concentrations by serial dilution with the same medium. For cells treated with analgesic in the absence of LPS, 50 μl of analgesic solution and 50 μl of FBS-free culture medium were added to each well. For cells treated with analgesic in the presence of LPS, 50 μl of analgesic solution and 50 μl of LPS (from Salmonella typhimurium) in FBS-free culture medium were added to each well. All conditions were tested in duplicates.
After 24 or 48 hours of culture, 150 μl of culture supernatants were collected, spun down for 2 min at 8,000 rpm at 4° C. to remove cells and debris and stored at −70° C. for analysis of cytokine responses by ELISA. The cells were collected and washed by centrifugation (5 min at 1,500 rpm at 4° C.) in 500 μl of Phosphate buffer (PBS). Half of the cells were then snap frozen in liquid nitrogen and stored at −70° C. The remaining cells were stained with fluorescent monoclonal antibodies and analyzed by flow cytometry.
For flow cytometry analysis, macrophages were diluted in 100 μl of FACS buffer (phosphate buffered saline (PBS) with 2% bovine serum albumin (BSA) and 0.01% NaN3) and stained 30 min at 4° C. by addition of FITC-conjugated anti-CD40, PE-conjugated anti-CD80, PE-conjugated anti-CD86 antibody, anti MHC class II (I-A^d) PE (BD Bioscience). Cells were then washed by centrifugation (5 min at 1,500 rpm at 4° C.) in 300 μl of FACS buffer. After a second wash, cells were re-suspended in 200 μl of FACS buffer and the percentage of cells expressing a given marker (single positive), or a combination of markers (double positive) were analyzed with the aid of an Accuri C6 flow cytometer (BD Biosciences).

[5] = system: IL-6 secretion by normal human bladder smooth muscle cells; assay: IL-6 ELISA of normal human bladder smooth muscle cell supernatants; format: cell-based
[6] = analgesic alone, 5 nM, negative control 20.6
[7] = analgesic alone, 50 nM, negative control 20.6
[8] = analgesic alone, 500 nM, negative control 20.6
[9] = analgesic alone, 5 × 10^3 nM, negative control 20.6
[10] = analgesic alone, 5 × 10^4 nM, negative control 20.6
[11] = analgesic alone, 5 × 10^5 nM, negative control 20.6
[12] = analgesic alone, 5 × 10^6 nM, negative control 20.6
[13] = analgesic plus LPS, analgesic 5 nM, LPS 5 ng/ml alone 77.8
[14] = analgesic plus LPS, analgesic 50 nM, LPS 5 ng/ml alone 77.8
[15] = analgesic plus LPS, analgesic 500 nM, LPS 5 ng/ml alone 77.8
[16] = analgesic plus LPS, analgesic 5 × 10^3 nM, LPS 5 ng/ml alone 77.8
[17] = analgesic plus LPS, analgesic 5 × 10^4 nM, LPS 5 ng/ml alone 77.8
[18] = analgesic plus LPS, analgesic 5 × 10^5 nM, LPS 5 ng/ml alone 77.8
[19] = analgesic plus LPS, analgesic 5 × 10^6 nM, LPS 5 ng/ml alone 77.8
[20] = LPS (10 μg/ml) plus analgesic 5 μM, LPS alone 4383
[21] = LPS (10 μg/ml) plus analgesic 5 μM, LPS alone 4838, mean of duplicates
[22] = LPS (10 μg/ml) plus analgesic 50 μM, LPS alone 4383
[23] = LPS (10 μg/ml) plus analgesic 50 μM, LPS alone 4838, mean of duplicates
[24] = stimulus alone, no analgesic (Carbachol 10^−3 M; LPS 10 μg/ml), unstimulated <5

Row | Compound | Maximum serum levels after oral therapeutic doses [1] | TNFα (pg/ml) Subject 2 [2] | TNFα (pg/ml) Subject 1 [2] | effect on the effect of carbachol and LPS on TNFα responses [2] | IL-6 (pg/ml) Subject 1 [3] | IL-6 (pg/ml) Subject 2 [3] | effect on the effect of carbachol and LPS on IL-6 responses [3] | effect on expression of the co-stimulatory molecules at the highest dose ([4]; 5 × 10^6 nM) | effect on basal expression of co-stimulatory molecules CD40 and CD80 by macrophages [4] | % Positive CD40+CD80+ [4, 6] | % Positive CD40+CD80+ [4, 7] | % Positive CD40+CD80+ [4, 8] | % Positive CD40+CD80+ [4, 9] | % Positive CD40+CD80+ [4, 10] | % Positive CD40+CD80+ [4, 11] | % Positive CD40+CD80+ [4, 13] | % Positive CD40+CD80+ [4, 14] | % Positive CD40+CD80+ [4, 15] | % Positive CD40+CD80+ [4, 16] | % Positive CD40+CD80+ [4, 17] | further results
1 | COc1ccc2cc([C@H](C)C(=O)O)ccc2c1 [Naproxen] | ≤ 60 mg/L | 137 pg/mL | 129 pg/mL | suppress | 114 pg/mL | 127 pg/mL | suppress | enhance | inhibit | 5.2% | 6.8% | 7.2% | 6.9% | 7.7% | 9.6% | 73% | 72% | 68.8% | 71.0% | 77.1% | % Positive CD40+CD80+ [4, 12]: 37%; % Positive CD40+CD80+ [4, 18]: 74.1%; % Positive CD40+CD80+ [4, 19]: 66.0%; IL-6 (pg/ml) Subject 2 [5, 20]: 2229 pg/mL; IL-6 (pg/ml) Subject 1 [5, 21]: 2077 pg/mL; IL-6 (pg/ml) Subject 2 [5, 22]: 2028 pg/mL; IL-6 (pg/ml) Subject 1 [5, 23]: 2102 pg/mL
2 | CC(C)Cc1ccc(C(C)C(=O)O)cc1 (centres unmarked) [Ibuprofen, ibuprofen] | 24 to 32 mg/L | 121 pg/mL | 146 pg/mL | suppress | 107 pg/mL | 118 pg/mL | suppress | enhance | inhibit | 5.8% | 4.9% | 6.0% | 7.9% | 7.7% | 6.4% | 60.3% | 63.7% | 71.1% | 72.9% | 77.9% | % Positive CD40+CD80+ [4, 18]: 67%; IL-6 (pg/ml) Subject 2 [5, 20]: 2173 pg/mL; IL-6 (pg/ml) Subject 1 [5, 21]: 2063 pg/mL; IL-6 (pg/ml) Subject 2 [5, 22]: 1991 pg/mL; IL-6 (pg/ml) Subject 1 [5, 23]: 2021 pg/mL
3 | CC(=O)Oc1ccccc1C(=O)O [Aspirin, Acetylsalicylic acid] | 30 to 100 mg/L | 142 pg/mL | 110 pg/mL | suppress | 95 pg/mL | 146 pg/mL | suppress | enhance | inhibit | 7.5% | 10.5% | 8% | 8.3% | 10.3% | 11% | 65.7% | 70.1% | 75.8% | 74.7% | 78.7% | % Positive CD40+CD80+ [4, 12]: 44%; % Positive CD40+CD80+ [4, 18]: 80%; % Positive CD40+CD80+ [4, 19]: 84.5%; IL-6 (pg/ml) Subject 2 [5, 20]: 2089 pg/mL; IL-6 (pg/ml) Subject 1 [5, 21]: 2199 pg/mL; IL-6 (pg/ml) Subject 2 [5, 22]: 2010 pg/mL; IL-6 (pg/ml) Subject 1 [5, 23]: 1987 pg/mL
4 | C[N+](C)(C)CCOC(N)=O [Carbachol, carbachol] | – | – | – | – | – | – | – | – | – | – | – | – | – | – | – | – | – | – | – | – | TNFα responses to stimulus alone ([2]; no analgesic): induced low, but significant TNFα and IL-6 responses; IL-6 responses to stimulus alone ([3]; no analgesic): induced low, but significant TNFα and IL-6 responses; IL-6 (pg/ml) Subject 1 [5, 24]: 232 pg/mL; IL-6 (pg/ml) Subject 2 [5, 24]: 278 pg/mL

Source: patent US10596127B2, “Composition for reducing the frequency of urination, method of making and use thereof” (WELLESLEY PHARMACEUTICALS, LLC, priority 2013, dated 2020)
